{"source": "ChEMBL document CHEMBL1151078", "about": "“An efficient synthesis of short-chain sphingomyelin analogs and their susceptibility to hydrolysis catalyzed by sphingomyelinase” (1997)", "data": [{"system": "Bacillus cereus", "assay": "Initial velocity (v) of the hydrolysis catalyzed by Bacillus cereus sphingomyelinase was measured", "type": "functional", "units": {"Velocity": "µM/min/mg"}, "values": [{"smiles": "CCCCC/C=C/[C@H](O)[C@H](COP(=O)([O-])OCC[N+](C)(C)C)NC(=O)CCCCC", "Velocity": 11.17}, {"smiles": "CCCCCCC[C@H](O)[C@H](COP(=O)([O-])OCC[N+](C)(C)C)NC(=O)CCCCC", "Velocity": 5.08}, {"smiles": "CCCCC/C=C/[C@@H](O)[C@H](COP(=O)([O-])OCC[N+](C)(C)C)NC(=O)CCCCC", "Velocity": 136.31}, {"smiles": "CCCCCCC[C@@H](O)[C@H](COP(=O)([O-])OCC[N+](C)(C)C)NC(=O)CCCCC", "Velocity": 109.15}]}]}
